US5326882A, “Chemiluminescent 3-(substituted Adamant-2'-Ylidene) 1,2-dioxetanes” (Tropix, Inc., priority 1992, dated 1994)

Assays:
[1] = biological target: alkaline phosphatase (Bos taurus, UniProt P19111); test: Chemiluminescent signal and signal:background with enhancer polymers (Example XVII); type: biochemical
Experimental: Four sets of three tubes each, each tube in each set containing 450 μl of a 0.4 mM aqueous solution of one of the four 1,2-dioxetanes being compared in 0.1M diethanolamine containing 1 mM magnesium chloride, 0.02% sodium azide and 0.1% of the enhancer polymer, pH 10.0 (substrate buffer) were prepared and the background signal from each tube measured using a Berthold LB 952T luminometer (Berthold Instruments; Wildbad, Federal Republic of Germany).
Next, 50 μl of an aqueous solution, 2.83×10^-12 M of alkaline phosphatase in 0.1M diethanolamine containing 1 mM magnesium chloride, 0.02% sodium azide, pH 10.0, (final enzyme concentration 2.83×10^-13 M) was added to each tube and the chemiluminescent signals were measured in the luminometer at 5 and 20 minutes. The intensity of the chemiluminescent signals and the signal: background ratios obtained for each of the four 1,2-dioxetanes in the presence of the enhancer polymers are shown in Table III below.
The enhancer polymers used, and the symbols for such polymers used in Table III, were the following: […]

[2] = biological target: T1, alkaline phosphatase-labeled DNA probe (Bos taurus, UniProt P19111); test: Alkaline phosphatase-labeled DNA probe detection in membrane with and without BDMQ blocking step (Example XV); settings: for Detection limit (in picograms DNA) 5. min. exp.: five minute exposure 40 minutes after dioxetane addition; for Detection limit (in picograms DNA) 1 min. exp.: one minute exposure 77 minutes after dioxetane addition
T1 construct: purchased Tropix, Inc
Experimental: pBr 322 plasmid (4700 bp) was subjected to a nick translation process using a Trans-Light kit (Tropix, Inc., Bedford, Mass.) to generate a mixture of biotinylated single stranded polynucleotides of 200-2000 bps in length.
This mixture was dotted onto a dry BIODYNE A membrane as five parallel columns of dots of the following concentrations:
The membrane was subjected to ultraviolet irradiation (UVP Mineral Light; UVP, San Gabriel, Calif.) for 3 minutes to fix the DNA to the surface of the membrane, then air dried. Next, the membrane was blocked in 0.2% casein/0.1% Tween 20 detergent in PBS for 1 hour, following which 1/5000 diluted avidin-alkaline phosphatase conjugate (Tropix, Inc.) in 0.2% casein in PBS was added. The membrane was then incubated for 30 minutes, washed three times (for 5 minutes each time) in 0.2% casein/0.1% Tween 20 detergent in PBS and washed once for five minutes in aqueous 0.1M diethanolamine containing 1 mm magnesium chloride and 0.02% sodium azide, pH 10.0 (substrate buffer).
Next, the five columns of rows of dots 1-5 were individually cut from the membrane ("strips 1-5"), as were the five columns of rows of dots 6-10 ("strips 6-10"). Strips 1-5 were washed with substrate buffer for 30 minutes. Strips 6-10 were blocked in 0.1% BDMQ in substrate buffer for 30 minutes. Both sets of strips were then incubated for 5 minutes in substrate buffer, then individually incubated for five minutes in aqueous solutions (0.25 mM) of 1,2-dioxetanes as indicated below:
All strips were then placed in camera luminometers and exposed on Polaroid Type 612 instant black and white film.

[3] = BDMQ blocking step, listed as OH-Adamant-2'-ylidene (B isomer)

Sequence of alkaline phosphatase (P19111 20-506 limits assumed): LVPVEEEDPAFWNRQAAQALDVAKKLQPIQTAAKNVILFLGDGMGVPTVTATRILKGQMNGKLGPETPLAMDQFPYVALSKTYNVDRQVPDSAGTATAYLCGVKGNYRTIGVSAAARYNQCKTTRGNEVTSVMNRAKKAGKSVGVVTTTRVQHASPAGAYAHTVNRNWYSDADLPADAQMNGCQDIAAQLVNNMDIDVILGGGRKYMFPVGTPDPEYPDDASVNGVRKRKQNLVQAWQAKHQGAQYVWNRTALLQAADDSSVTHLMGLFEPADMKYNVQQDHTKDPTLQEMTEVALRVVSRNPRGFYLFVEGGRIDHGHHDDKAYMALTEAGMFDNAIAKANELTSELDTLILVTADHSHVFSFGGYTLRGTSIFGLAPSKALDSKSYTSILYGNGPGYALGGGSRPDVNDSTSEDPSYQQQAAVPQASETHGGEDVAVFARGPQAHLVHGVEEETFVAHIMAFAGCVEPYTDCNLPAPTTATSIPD
T1 sequence (P19111 20-506 limits assumed): as above
T1 sequence (P02701 25-152 partner): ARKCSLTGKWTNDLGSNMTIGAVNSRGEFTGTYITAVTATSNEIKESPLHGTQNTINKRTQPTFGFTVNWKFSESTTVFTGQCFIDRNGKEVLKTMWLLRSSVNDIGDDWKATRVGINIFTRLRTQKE

COC1(c2cccc(OP(=O)(O)O)c2)OOC12C1CC3CC2CC(O)(C3)C1 (single isomer, unassigned) [B-OH-AMPPD, disodium 3-(4-methoxyspiro-[1,2-dioxetane-3,2'-(5'-hydroxy)tricyclo[3.3.1.1^3,7]decan]-4-yl)phenyl phosphate]
S/N ([1]; polymer BAEDM, 5 min): 25.4
SIGNAL ([1]; polymer BAEDM, 5 min): 4101.3
S/N ([1]; polymer BAEDM, 20 min): 34.3
SIGNAL ([1]; polymer BAEDM, 20 min): 5538.2
S/N ([1]; polymer BAEDM, time 0): 1.0
SIGNAL ([1]; polymer BAEDM, time 0 (background, before enzyme)): 161.4
S/N ([1]; polymer BZ, 5 min): 18.8
SIGNAL ([1]; polymer BZ, 5 min): 2246.4
S/N ([1]; polymer BZ, 20 min): 22.4
SIGNAL ([1]; polymer BZ, 20 min): 2669.2
S/N ([1]; polymer BZ, time 0): 1.0
SIGNAL ([1]; polymer BZ, time 0 (background, before enzyme)): 119.4
S/N ([1]; polymer DAA TMQ, 5 min): 40.3
SIGNAL ([1]; polymer DAA TMQ, 5 min): 5486.8
S/N ([1]; polymer DAA TMQ, 20 min): 49.0
SIGNAL ([1]; polymer DAA TMQ, 20 min): 6670.3
S/N ([1]; polymer DAA TMQ, time 0): 1.0
SIGNAL ([1]; polymer DAA TMQ, time 0 (background, before enzyme)): 136.0
S/N ([1]; polymer DME(OH)B, 5 min): 20.0
SIGNAL ([1]; polymer DME(OH)B, 5 min): 2640.9
S/N ([1]; polymer DME(OH)B, 20 min): 30.2
SIGNAL ([1]; polymer DME(OH)B, 20 min): 3990.6
S/N ([1]; polymer DME(OH)B, time 0): 1.0
SIGNAL ([1]; polymer DME(OH)B, time 0 (background, before enzyme)): 132.1
S/N ([1]; polymer DMEB, 5 min): 35.7
SIGNAL ([1]; polymer DMEB, 5 min): 4451.6
S/N ([1]; polymer DMEB, 20 min): 48.3
SIGNAL ([1]; polymer DMEB, 20 min): 6023.9
S/N ([1]; polymer DMEB, time 0): 1.0
SIGNAL ([1]; polymer DMEB, time 0 (background, before enzyme)): 124.6
S/N ([1]; polymer DMQ TEQ, 5 min): 63.3
SIGNAL ([1]; polymer DMQ TEQ, 5 min): 9213.8
S/N ([1]; polymer DMQ TEQ, 20 min): 57.0
SIGNAL ([1]; polymer DMQ TEQ, 20 min): 8288.0
S/N ([1]; polymer DMQ TEQ, time 0): 1.0
SIGNAL ([1]; polymer DMQ TEQ, time 0 (background, before enzyme)): 145.5
S/N ([1]; polymer MPB, 5 min): 71.5
SIGNAL ([1]; polymer MPB, 5 min): 10021.3
S/N ([1]; polymer MPB, 20 min): 78.0
SIGNAL ([1]; polymer MPB, 20 min): 10939.0
S/N ([1]; polymer MPB, time 0): 1.0
SIGNAL ([1]; polymer MPB, time 0 (background, before enzyme)): 140.3
S/N ([1]; polymer NONE, 5 min): 26.3
SIGNAL ([1]; polymer NONE, 5 min, enzyme 2.83×10^-13 M): 3314.8
S/N ([1]; polymer NONE, 20 min): 29.8
SIGNAL ([1]; polymer NONE, 20 min, enzyme 2.83×10^-13 M): 3767.9
S/N ([1]; polymer NONE, time 0): 1.0
SIGNAL ([1]; polymer NONE, time 0 (background, before enzyme)): 126.3
S/N ([1]; polymer S/TMQ(1:2), 5 min): 20.6
SIGNAL ([1]; polymer S/TMQ(1:2), 5 min): 3305.1
S/N ([1]; polymer S/TMQ(1:2), 20 min): 35.7
SIGNAL ([1]; polymer S/TMQ(1:2), 20 min): 5722.3
S/N ([1]; polymer S/TMQ(1:2), time 0): 1.0
SIGNAL ([1]; polymer S/TMQ(1:2), time 0 (background, before enzyme)): 160.3
S/N ([1]; polymer S/TMQ(1:4), 5 min): 35.6
SIGNAL ([1]; polymer S/TMQ(1:4), 5 min): 4775.3
S/N ([1]; polymer S/TMQ(1:4), 20 min): 53.1
SIGNAL ([1]; polymer S/TMQ(1:4), 20 min): 7120.3
S/N ([1]; polymer S/TMQ(1:4), time 0): 1.0
SIGNAL ([1]; polymer S/TMQ(1:4), time 0 (background, before enzyme)): 134.0
SIGNAL ([1]; polymer SAPPHIRE (BDMQ), time 0 (background, before enzyme)): 138.8
S/N ([1]; polymer SAPPHIRE, 5 min): 78.6
SIGNAL ([1]; polymer SAPPHIRE, 5 min): 10908.4
S/N ([1]; polymer SAPPHIRE, 20 min): 105.3
SIGNAL ([1]; polymer SAPPHIRE, 20 min): 14625.4
S/N ([1]; polymer SAPPHIRE, time 0): 1.0
S/N ([1]; polymer TBQ, 5 min): 97.6
SIGNAL ([1]; polymer TBQ, 5 min): 15508.5
S/N ([1]; polymer TBQ, 20 min): 131.1
SIGNAL ([1]; polymer TBQ, 20 min): 20830.8
S/N ([1]; polymer TBQ, time 0): 1.0
SIGNAL ([1]; polymer TBQ, time 0 (background, before enzyme)): 158.9
S/N ([1]; polymer TEQ, 5 min): 61.8
SIGNAL ([1]; polymer TEQ, 5 min): 8806.2
S/N ([1]; polymer TEQ, 20 min): 81.1
SIGNAL ([1]; polymer TEQ, 20 min): 11563.4
S/N ([1]; polymer TEQ, time 0): 1.0
SIGNAL ([1]; polymer TEQ, time 0 (background, before enzyme)): 142.6
S/N ([1]; polymer TMQ, 5 min): 49.8
SIGNAL ([1]; polymer TMQ, 5 min): 6258.9
S/N ([1]; polymer TMQ, 20 min): 70.5
SIGNAL ([1]; polymer TMQ, 20 min): 8857.8
S/N ([1]; polymer TMQ, time 0): 1.0
SIGNAL ([1]; polymer TMQ, time 0 (background, before enzyme)): 125.7
Detection limit (in picograms DNA) 5. min. exp. [2, 3]: 1.250 picograms DNA
Detection limit (in picograms DNA) 1 min. exp. [2, 3]: 5.000 picograms DNA
Detection limit (in picograms DNA) 5. min. exp. ([2]; no BDMQ blocking step): 5.000 picograms DNA
Detection limit (in picograms DNA) 1 min. exp. ([2]; no BDMQ blocking step, listed as OH-Adamant-2'-ylidene (B isomer)): 20.000 picograms DNA
